Test results as given in patent US20230014907A1, “INHIBITORS OF APOL1 AND METHODS OF USING SAME” (Vertex Pharmaceuticals Incorporated, priority 2020, published 2023).
pIC50: −log10 of the molar value.

Experiments:
APOL1 G1 Protein = biological target: T1, APOL1 G1 Protein (Homo sapiens, UniProt O14791, I384M/S342G); test: Trypanosoma brucei brucei Lysis Assay Using APOL1 Recombinant Protein (AlamarBlue viability); type: cell-based; conditions: read-out: Trypanosomal Assay (IC50)
T1 sequence (O14791 28-398 S342G/I384M): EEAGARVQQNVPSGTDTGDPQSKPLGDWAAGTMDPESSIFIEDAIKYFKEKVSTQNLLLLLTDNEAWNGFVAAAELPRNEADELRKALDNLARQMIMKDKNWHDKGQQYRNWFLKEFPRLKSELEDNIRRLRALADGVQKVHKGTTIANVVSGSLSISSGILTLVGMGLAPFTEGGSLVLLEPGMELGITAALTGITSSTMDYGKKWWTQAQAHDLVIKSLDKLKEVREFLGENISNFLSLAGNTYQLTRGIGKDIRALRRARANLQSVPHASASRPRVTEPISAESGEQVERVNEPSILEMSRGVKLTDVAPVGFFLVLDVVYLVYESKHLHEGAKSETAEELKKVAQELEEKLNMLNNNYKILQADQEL
How it was run: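 Lister 427 bloodstream-form trypanosomes seeded at 120,000 per well in phenol-red-free, serum-free medium and lysed with recombinant APOL1 variant protein. Viability read by AlamarBlue (resazurin) fluorescence. Percent viability relative to untreated wells, interpolated from a standard curve of seeded parasites.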

G1 APOL1 = biological target: T2, G1 APOL1 (Homo sapiens, UniProt O14791, I384M/S342G); test: Acute APOL1 Thallium Assay with Inducible Stable Clones of HEK 293 Cells; type: cell-based; conditions: HEK 293 inducible stable clones, G1 APOL1; read-out: Thallium Assay (IC50)
T2 construct: expressed in transfected cells
T2 sequence (O14791 28-398 S342G/I384M): T1 sequence (O14791 28-398 S342G/I384M)
How it was run: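 HEK293 T-Rex cells with a stable tetracycline-inducible G1 APOL1 construct (clone DC3.25) were induced with tetracycline at plating, 26000 cells per well, then incubated at 37° C. They were loaded with an AM-ester thallium-sensitive dye and stimulated with Tl+. The fluorescence rise measured Tl+ influx through APOL1 pores.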

| SMILES | pIC50 (APOL1 G1 Protein) | pIC50 (G1 APOL1) |
| --- | --- | --- |
| CC(=O)OCC(CO)NC(=O)CCc1c(-c2ccc(F)cc2)[nH]c2c(F)cc(F)cc12 (stereo not shown) [Compound 141] | 6.00 to 6.60 | 6.00 to 6.60 |
| CC(CN)NC(=O)CCc1c(-c2ccc(F)cc2)[nH]c2ccc(F)cc12 (racemic) [Compound 5] | < 6.00 | < 6.00 |
| COCC(C)NC(=O)CCc1c(-c2ccc(F)cc2)[nH]c2ccc(F)cc12 (racemic) [Compound 30] | 6.00 to 6.60 | 6.00 to 6.60 |
| O=C(CCc1c(-c2ccc(F)cc2)[nH]c2c(F)cc(F)cc12)NC[C@H](O)C(F)(F)F [Compound 114] | < 6.00 | < 6.00 |
| O=C(CCc1c(-c2ccc(F)cc2)[nH]c2c(F)ccc(F)c12)N[C@@H](CO)C(F)(F)F [Compound 232, 3-[4,7-difluoro-2-(4-fluorophenyl)-1H-indol-3-yl]-N-[(1S)-2,2,2-trifluoro-1-(hydroxymethyl)ethyl]propanamide] | 6.00 to 6.60 | 6.00 to 6.60 |
| O=C(CCc1c(-c2ccc(F)cc2)[nH]c2c(F)cc(F)cc12)Nc1ccc[nH]c1=O [Compound 175] | < 6.00 | < 6.00 |
| O=C(CCc1c(-c2ccc(F)cc2)[nH]c2c(F)cc(F)cc12)NCCC(=O)N1CC(O)C1 [Compound 191] | < 6.00 | < 6.00 |
| O=C(CCc1c(-c2ccc(F)cc2)[nH]c2ccc(F)cc12)NC1COC1 [Compound 69] | < 6.00 | < 6.00 |
| CC(C)(NC(=O)CCc1c(-c2ccc(F)cc2)[nH]c2c(F)cc(F)cc12)C(F)(F)F [Compound 182] | < 6.00 | < 6.00 |
| O=C(CCc1c(-c2ccc(F)cc2)[nH]c2c(F)cc(F)cc12)NC1(CO)CC(F)(F)C1 [Compound 122] | < 6.00 | 6.00 to 6.60 |
| NC(=O)[C@@H](CO)NC(=O)CCc1c(-c2ccc(F)cc2)[nH]c2c(F)cc(F)cc12 [Compound 98] | < 6.00 | 6.00 to 6.60 |
| O=C(CCc1c(-c2ccc(F)cc2)[nH]c2c(F)cc(F)cc12)Nc1nnco1 [Compound 151] | < 6.00 | < 6.00 |
| NCCCc1c(-c2ccc(F)cc2)[nH]c2c(F)cc(F)cc12 [Compound 504, 3-[5,7-difluoro-2-(4-fluorophenyl)-1H-indol-3-yl]propan-1-amine] | > 6.60 | 6.00 to 6.60 |
| CC(C)(C)OC(=O)N1C[C@H](NC(=O)CCc2c(-c3ccc(F)cc3)[nH]c3ccc(F)cc23)[C@@H](O)C1 [Compound 76] | < 6.00 | < 6.00 |
| CC(NC(=O)CCc1c(-c2ccc(F)cc2)[nH]c2ccc(F)cc12)C(N)=O (racemic) [Compound 13] | < 6.00 | 6.00 to 6.60 |
| CC(C)(C)OC(=O)N[C@H]1C[C@@H](NC(=O)CCc2c(-c3ccc(F)cc3)[nH]c3ccc(F)cc23)C1 [Compound 83] | < 6.00 | < 6.00 |
| O=C(CCc1c(-c2ccc(F)cc2)[nH]c2c(F)cc(F)cc12)NC1(CO)CCC1 [Compound 91, 3-[5,7-difluoro-2-(4-fluorophenyl)-1H-indol-3-yl]-N-[1-(hydroxymethyl)-cyclobutyl]propanamide] | > 6.60 | > 6.60 |
| O=C(CCc1c(-c2ccc(F)cc2)[nH]c2c(F)cc(F)cc12)N[C@H]1COC[C@@H]1O [Compound 181] | < 6.00 | < 6.00 |
| CNC(=O)C(C)NC(=O)CCc1c(-c2ccc(F)cc2)[nH]c2c(F)cc(F)cc12 (racemic) [Compound 100] | 6.00 to 6.60 | 6.00 to 6.60 |
| CN(CCNC(=O)OC(C)(C)C)C(=O)CCc1c(-c2ccc(F)cc2)[nH]c2ccc(F)cc12 [Compound 72] | < 6.00 | < 6.00 |
| O=C(CCc1c(-c2ccc(F)cc2)[nH]c2c(F)cc(F)cc12)NC(CO)CF (stereo not shown) [Compound 99] | > 6.60 | > 6.60 |
| CC(C)C[C@H](CO)NC(=O)CCc1c(-c2ccc(F)cc2)[nH]c2c(F)cc(F)cc12 [Compound 192] | < 6.00 | < 6.00 |
| CC(C#N)(CO)NC(=O)CCc1c(-c2ccc(F)cc2)[nH]c2ccc(F)cc12 (racemic) [Compound 33] | < 6.00 | < 6.00 |
| CC1(O)CCN(C(=O)CCc2c(-c3ccc(F)cc3)[nH]c3ccc(F)cc23)C1 (racemic) [Compound 88] | < 6.00 | < 6.00 |
| CC(=O)NCCCc1c(-c2ccc(F)cc2)[nH]c2c(Cl)cccc12 [Compound 508, N-[3-[7-chloro-2-(4-fluorophenyl)-1H-indol-3-yl]propyl]acetamide] | 6.00 to 6.60 | 6.00 to 6.60 |

| SMILES | pIC50 (APOL1 G1 Protein) | pIC50 (G1 APOL1) |
| --- | --- | --- |
| Cc1cnc(NC(=O)CCc2c(-c3ccc(F)cc3)[nH]c3c(F)cc(F)cc23)s1 [Compound 178] | < 6.00 | < 6.00 |
| C[C@H](O)[C@H](CO)NC(=O)CCc1c(-c2ccc(F)cc2)[nH]c2ccc(F)cc12 [Compound 28] | < 6.00 | 6.00 to 6.60 |
| CC1(NC(=O)CCc2c(-c3ccc(F)cc3)[nH]c3c(F)cc(F)cc23)CCOC1 (racemic) [Compound 152] | < 6.00 | < 6.00 |
| O=C(CCc1c(-c2ccc(F)cc2)[nH]c2c(F)cc(F)cc12)NC1CCCC1=O (stereo not shown) [Compound 101] | > 6.60 | > 6.60 |
| CC(C)(CO)NC(=O)CCc1c(-c2ccc(F)cc2)[nH]c2c(F)cc(F)cc12 [Compound 103] | 6.00 to 6.60 | 6.00 to 6.60 |
| O=C(CCc1c(-c2ccc(F)cc2)[nH]c2ccc(F)cc12)N[C@@H](CO)C(F)(F)F [Compound 1, 3-[5-fluoro-2-(4-fluorophenyl)-1H-indol-3-yl]-N-[(1S)-2,2,2-trifluoro-1-(hydroxymethyl)ethyl]propanamide] | > 6.60 | > 6.60 |
| COCC1(NC(=O)CCc2c(-c3ccc(F)cc3)[nH]c3c(F)cc(F)cc23)CC1 [Compound 102] | 6.00 to 6.60 | 6.00 to 6.60 |
| CN(CC(N)=O)C(=O)CCc1c(-c2ccc(F)cc2)[nH]c2c(F)cc(F)cc12 [Compound 150] | < 6.00 | < 6.00 |
| O=C(CCc1c(-c2ccc(F)cc2)[nH]c2ccc(F)cc12)N1CCCC(O)C1 (stereo not shown) [Compound 81] | < 6.00 | < 6.00 |
| O=C(CCc1c(-c2ccc(F)cc2)[nH]c2ccc(F)cc12)NC(CO)CF (stereo not shown) [Compound 90] | > 6.60 | 6.00 to 6.60 |
| O=C(CCc1c(-c2ccc(F)cc2)[nH]c2ccc(F)cc12)NCC(F)(F)F [Compound 39] | < 6.00 | 6.00 to 6.60 |
| O=C(/C=C/c1c(-c2ccc(F)cc2)[nH]c2c(F)cc(F)cc12)N[C@@H]1C(=O)NC[C@H]1O [Compound 518, (E)-3-[5,7-difluoro-2-(4-fluorophenyl)-1H-indol-3-yl]-N-[(3S,4R)-4-hydroxy-2-oxo-pyrrolidin-3-yl]prop-2-enamide] | > 6.60 | > 6.60 |
| C[C@H](O)CNC(=O)CCc1c(-c2ccc(F)cc2)[nH]c2ccc(F)cc12 [Compound 78] | < 6.00 | < 6.00 |
| C[C@@H](O)[C@H](CO)NC(=O)CCc1c(-c2ccc(F)cc2)[nH]c2ccc(F)cc12 [Compound 38] | 6.00 to 6.60 | 6.00 to 6.60 |
| CC1(NC(=O)CCc2c(-c3ccc(F)cc3)[nH]c3c(F)cc(F)cc23)CCOC1=O (racemic) [Compound 105] | 6.00 to 6.60 | < 6.00 |
| O=C(CCc1c(-c2ccc(F)cc2)[nH]c2c(F)ccc(F)c12)N[C@H]1CCOC1=O [Compound 233, 3-[4,7-difluoro-2-(4-fluorophenyl)-1H-indol-3-yl]-N-[(3S)-2-oxotetrahydrofuran-3-yl]propanamide] | < 6.00 | 6.00 to 6.60 |
| CC1(O)CN(C(=O)CCc2c(-c3ccc(F)cc3)[nH]c3ccc(F)cc23)C1 [Compound 86] | < 6.00 | < 6.00 |
| Cc1nc(NC(=O)CCc2c(-c3ccc(F)cc3)[nH]c3c(F)cc(F)cc23)no1 [Compound 92, 3-[5,7-difluoro-2-(4-fluorophenyl)-1H-indol-3-yl]-N-(5-methyl-1,2,4-oxadiazol-3-yl)propanamide] | < 6.00 | < 6.00 |
| O=C(CCc1c(-c2ccc(F)cc2)[nH]c2ccccc12)NC1CC1 [Compound 238] | < 6.00 | < 6.00 |
| O=C(CCc1c(-c2ccc(F)cc2)[nH]c2ccc(F)cc12)NC(CO)C1CC1 (stereo not shown) [Compound 21] | 6.00 to 6.60 | 6.00 to 6.60 |
| O=C(CCc1c(-c2ccc(F)cc2)[nH]c2c(F)cc(F)cc12)NCc1cnn(CC(F)(F)F)c1 [Compound 186] | < 6.00 | < 6.00 |
| COCCN(C)C(=O)CCc1c(-c2ccc(F)cc2)[nH]c2c(F)cc(F)cc12 [Compound 156] | < 6.00 | < 6.00 |
| CC(=O)NCCSc1c(-c2ccc(F)cc2)[nH]c2ccccc12 [Compound 510, N-[2-[[2-(4-fluorophenyl)-1H-indol-3-yl]sulfanyl]ethyl]acetamide] | 6.00 to 6.60 | 6.00 to 6.60 |
| CC[C@@H](CO)NC(=O)CCc1c(-c2ccc(F)cc2)[nH]c2ccc(F)cc12 [Compound 80] | < 6.00 | < 6.00 |
| O=C(CCc1c(-c2ccc(F)cc2)[nH]c2c(F)cc(F)cc12)Nc1c[nH][nH]c1=O [Compound 97] | < 6.00 | 6.00 to 6.60 |
